Reference: PMC9849758, “Chemically diverse activity-based probes with unexpected inhibitory mechanisms targeting trypsin-like serine proteases” (Frontiers in Chemistry, 2023)
Entries after “also recorded” stand apart in the source; their conditions may differ. Counter-ions that a name gives are not always drawn.

Assays:
[1] = target: T1, Trypsin-3 (Homo sapiens, UniProt P35030); experiment: Labeling and detection of recombinant proteases (SDS-PAGE blot, NeutrAvidin-HRP); assay type: binding; details: 1 µM ABP, 100 ng protease, 30 min 37°C, denaturing SDS-PAGE blot
T1 sequence (P35030 1-304): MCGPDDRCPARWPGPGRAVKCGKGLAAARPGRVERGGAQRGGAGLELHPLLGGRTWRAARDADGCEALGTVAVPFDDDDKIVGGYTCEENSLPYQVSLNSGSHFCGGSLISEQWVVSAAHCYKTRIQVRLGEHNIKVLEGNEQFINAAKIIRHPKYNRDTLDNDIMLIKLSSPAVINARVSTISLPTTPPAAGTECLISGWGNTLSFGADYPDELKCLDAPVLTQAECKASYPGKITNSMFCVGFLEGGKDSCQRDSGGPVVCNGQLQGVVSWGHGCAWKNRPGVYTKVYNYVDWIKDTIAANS
Protocol: (§1) Recombinant proteases (100 ng) were labeled with 1 µM ABP in reaction buffer in a final volume of 40 µL for 30 min at 37°C. After the addition of 4X Laemmli buffer (Bio-Rad, GmbH) supplemented with Bond-Breaker Tris (2-CarboxyEthyl)Phosphine (TCEP) Solution (Thermo Scientific, United States), the samples were heated at 95°C for 5 min and loaded into 4%–20% Mini-Protean TGX precast gels (Bio-Rad, GmbH). After electrophoresis, the proteins were blotted onto nitrocellulose membranes using the Trans-Blot Transfer Turbo System (Bio-Rad). Membranes were incubated with NeutrAvidin-HRP (1:50,000), and bands were visualized with ECL Select Western Blot Detection Reagent (GE Healthcare Life Sciences) by chemiluminescence (Chemidoc XRS; Bio-Rad). The molecular weight of each band was determined with the Image Lab Software v5 (Bio-Rad).
(§2) To further characterize the newly synthesized compounds and their potential to be used as ABPs, nine desthiobiotin probes were used for the labeling and detection of recombinant proteases. The arginine (45b–46b) and the proline-lysine (58b) desthiobiotin probes were used as reference compounds. Whereas the benzyl guanidine (50b, 52b, 54b) and phenyl guanidine probes (55b–57b) were used to determine whether the mechanism of inhibition (reversible or irreversible) is an obstacle to visualize the proteases. Samples of human recombinant proteases (trypsin-3, β-tryptase, and CatG) were incubated with the different probes before electrophoresis and detection with NeutrAvidin-HRP on a Western blot. Figure 7A illustrates the ability of the desthiobiotin probes to indicate the presence of the corresponding trypsin-like enzyme. […] This effect can be explained due to the strong interactions between the active site of the protease and the probes. The high affinity and the slow off-rates were described in Table 5 by the equilibrium constants KI*. Assuming that there is an excess of inhibitor over enzyme, the free inhibitor concentration must be very low, lower than the KI*, in order for the complex to dissociate. Therefore, the high affinity complex E*I survives during the whole process of labeling, gel electrophoresis, and visualization.

[2] = target: β-tryptase (Homo sapiens, UniProt P20231); experiment: as above; assay type: binding; details: 1 µM ABP, 100 ng protease, 30 min 37°C, denaturing SDS-PAGE blot
Protocol: as §1, §2

[3] = target: T2, CatG (Homo sapiens, UniProt P08311); experiment: as above; assay type: binding; details: 1 µM ABP, 100 ng protease, 30 min 37°C, denaturing SDS-PAGE blot
T2 sequence (P08311 21-255): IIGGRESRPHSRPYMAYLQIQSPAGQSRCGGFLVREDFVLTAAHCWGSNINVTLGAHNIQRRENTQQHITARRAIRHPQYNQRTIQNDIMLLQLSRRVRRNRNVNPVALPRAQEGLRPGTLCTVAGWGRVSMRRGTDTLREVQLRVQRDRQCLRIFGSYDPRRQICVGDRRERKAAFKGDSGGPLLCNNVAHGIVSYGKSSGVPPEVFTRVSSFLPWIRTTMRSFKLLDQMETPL
Protocol: as §1, §2

[4] = target: T3, Neutrophil Elastase (recombinant neutrophil elastase) (Homo sapiens, UniProt P08246); experiment: IC50 determination, spectrophotometric protease assay; assay type: biochemical
T3 construct: purchased Enzo LifeSciences
T3 sequence (P08246 30-267): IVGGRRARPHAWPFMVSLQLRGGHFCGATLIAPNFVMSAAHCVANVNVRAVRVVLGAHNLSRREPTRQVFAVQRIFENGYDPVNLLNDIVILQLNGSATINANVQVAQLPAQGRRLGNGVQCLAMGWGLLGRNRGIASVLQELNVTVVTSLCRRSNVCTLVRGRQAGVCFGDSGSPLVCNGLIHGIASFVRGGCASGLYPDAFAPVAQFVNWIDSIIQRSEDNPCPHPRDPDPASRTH
Method in brief: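 Protease activity followed by release of pNA chromophore or AMC fluorophore from substrates at Km concentration, read over 30 min at 37°C in duplicate. Compounds pre-screened at 10, 1 and .1 μM; those giving ≥50% inhibition at 10 μM had IC50 fitted by four-parameter logistic equation.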

Sequence of β-tryptase (P20231 31-275): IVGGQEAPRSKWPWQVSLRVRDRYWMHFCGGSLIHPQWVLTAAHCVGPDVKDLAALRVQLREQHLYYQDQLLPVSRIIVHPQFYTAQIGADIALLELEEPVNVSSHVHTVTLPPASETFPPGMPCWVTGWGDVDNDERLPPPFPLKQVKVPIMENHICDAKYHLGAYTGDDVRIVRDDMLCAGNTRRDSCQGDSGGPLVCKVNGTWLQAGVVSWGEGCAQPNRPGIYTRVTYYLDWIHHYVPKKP

Structure (SMILES)	labeling of recombinant trypsin-3 [1]	labeling of recombinant β-tryptase [2]	labeling of recombinant CatG [3]	IC50 [4] [µM]
C[C@@H]1NC(=O)N[C@@H]1CCCCCC(=O)NCCOCCOCCOCCn1cc(CCCOC(=O)NC(Cc2ccc(NC(=N)N)cc2)P(=O)(Oc2ccccc2)Oc2ccccc2)nn1 (stereo partly drawn) [50b, 3-(1-(18-((4R,5S)-5-methyl-2-oxoimidazolidin-4-yl)-13-oxo-3,6,9-trioxa-12-azaoctadecyl)-1H-1,2,3-triazol-4-yl)propyl (1-(diphenoxyphosphoryl)-2-(4-guanidinophenyl)ethyl)carbamate trifluoroacetate salt]	can label	can label	can label	> 10
C#CCCCOC(=O)NC(CCCNC(=N)N)P(=O)(Oc1ccccc1)Oc1ccccc1 (stereo not drawn) [32b]				> 10
C[C@@H]1NC(=O)N[C@@H]1CCCCCC(=O)NCCOCCOCCOCCn1cc(CCCOC(=O)NC(Cc2ccc(NC(=N)N)cc2)P(=O)(Oc2ccc(Cl)cc2)Oc2ccc(Cl)cc2)nn1 (stereo partly drawn) [54b]	can label	can label; also recorded: slightly better resolution	can label	> 10
C#CCCCOC(=O)NC(Cc1ccc(NC(=N)N)cc1)P(=O)(Oc1ccccc1)Oc1ccccc1 (stereo not drawn) [34b]				> 10
C[C@@H]1NC(=O)N[C@@H]1CCCCCC(=O)NCCOCCOCCOCCn1cc(CCCOC(=O)NC(CCCNC(=N)N)P(=O)(Oc2ccc(Cl)cc2)Oc2ccc(Cl)cc2)nn1 (stereo partly drawn) [46b]		not good ABP candidates		
C[C@@H]1NC(=O)N[C@@H]1CCCCCC(=O)NCCOCCOCCOCCn1cc(CCCOC(=O)NC(c2ccc(NC(=N)N)cc2)P(=O)(Oc2ccc(Cl)cc2)Oc2ccc(Cl)cc2)nn1 (stereo partly drawn) [57b]		slightly better resolution		
CC(=O)Nc1ccc(OP(=O)(Oc2ccc(NC(C)=O)cc2)C(Cc2ccc(NC(=N)N)cc2)NC(=O)OCCCc2cn(CCOCCOCCOCCNC(=O)CCCCC[C@H]3NC(=O)N[C@H]3C)nn2)cc1 (stereo partly drawn) [52b]	can label	can label	can label	> 10
C#CCCCOC(=O)NC(Cc1ccc(NC(=N)N)cc1)P(=O)(Oc1ccc(NC(C)=O)cc1)Oc1ccc(NC(C)=O)cc1 (stereo not drawn) [35b]				> 10
C#CCCCOC(=O)NC(Cc1ccc(NC(=N)N)cc1)P(=O)(Oc1ccc(Cl)cc1)Oc1ccc(Cl)cc1 (stereo not drawn) [36b]				> 10
C#CCCCOC(=O)NC(C1CCN(C(=N)N)CC1)P(=O)(Oc1ccccc1)Oc1ccccc1 (stereo not drawn) [41b]				> 10
C#CCCCOC(=O)NC(c1ccc(NC(=N)N)cc1)P(=O)(Oc1ccccc1)Oc1ccccc1.O=C(O)C(F)(F)F (stereo not drawn) [37b, Pent-4-yn-1-yl ((diphenoxyphosphoryl)(4-guanidinophenyl)methyl)carbamate trifluoroacetate salt]				> 10
C[C@@H]1NC(=O)N[C@@H]1CCCCCC(=O)NCCOCCOCCOCCn1cc(CCCOC(=O)NC(CCCNC(=N)N)P(=O)(Oc2ccccc2)Oc2ccccc2)nn1 (stereo partly drawn) [45b]		not good ABP candidates		
